Reference: patent publication US20100063282A1, “Glucocorticoid Mimetics, Methods of Making Them, Pharmaceutical Compositions, and Uses Thereof” (BOEHRINGER INGELHEIM INTERNATIONAL GMBH, priority 2007, published 2010)

What was measured:
[1] = biological target: T1, human glucocorticoid receptor (GR) complex (Homo sapiens, UniProt P04150); test: Glucocorticoid receptor competitive binding assay (fluorescence polarization); conditions: competition with TAMRA-labeled dexamethasone, GR-containing baculovirus lysate, 1 hour at room temperature
T1 construct: made in house; host or cells: insect cells (baculovirus expression); used as crude lysate
T1 sequence (P04150 1-777): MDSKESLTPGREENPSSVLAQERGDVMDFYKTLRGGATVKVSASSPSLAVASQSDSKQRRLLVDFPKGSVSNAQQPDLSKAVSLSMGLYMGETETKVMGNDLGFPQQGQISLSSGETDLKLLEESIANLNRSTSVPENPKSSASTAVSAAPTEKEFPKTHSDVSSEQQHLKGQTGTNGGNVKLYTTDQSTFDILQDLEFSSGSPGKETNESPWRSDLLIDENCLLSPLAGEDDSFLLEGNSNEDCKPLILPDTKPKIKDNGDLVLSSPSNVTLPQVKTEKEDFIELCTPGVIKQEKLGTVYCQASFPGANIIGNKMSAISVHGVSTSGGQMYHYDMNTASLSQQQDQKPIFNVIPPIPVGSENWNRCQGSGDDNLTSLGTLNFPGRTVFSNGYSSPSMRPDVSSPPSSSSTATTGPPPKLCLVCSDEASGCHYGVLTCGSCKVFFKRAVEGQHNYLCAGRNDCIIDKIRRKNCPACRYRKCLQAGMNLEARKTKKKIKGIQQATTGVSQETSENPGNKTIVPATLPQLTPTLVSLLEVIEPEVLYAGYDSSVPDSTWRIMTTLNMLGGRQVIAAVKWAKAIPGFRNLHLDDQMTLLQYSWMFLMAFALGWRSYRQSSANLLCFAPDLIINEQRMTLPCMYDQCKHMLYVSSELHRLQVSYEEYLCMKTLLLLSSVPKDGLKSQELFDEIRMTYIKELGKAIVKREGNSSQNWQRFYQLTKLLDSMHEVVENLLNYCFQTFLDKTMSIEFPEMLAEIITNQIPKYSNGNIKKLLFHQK
Experimental: Compounds of the invention were evaluated for binding to the steroid receptor by a fluorescence polarization competitive binding assay. Detailed descriptions for preparation of recombinant glucocorticoid receptor (GR) complex used in the assay is described in U.S. Patent Application Publication No. US 2003/0017503, filed May 20, 2002, and incorporated herein by reference in its entirety. Preparation of the tetramethylrhodamine (TAMRA)-labeled dexamethasone probe was accomplished using a standard literature procedure (M. Pons et al., J. Steroid Biochem., 1985, 22, pp. 267-273).
The affinity of the probe for the steroid receptor was then determined in a titration experiment. The fluorescence polarization value of the probe in assay buffer was measured on an SLM-8100 fluorometer using the excitation and emission maximum values described above. Aliquots of expression vector lysate were added and fluorescence polarization was measured after each addition until no further change in polarization value was observed. Non-linear least squares regression analysis was used to calculate the dissociation constant of the probe from the polarization values obtained for lysate binding to the probe.
This assay uses fluorescence polarization (FP) to quantitate the ability of test compounds to compete with tetramethylrhodamine (TAMRA)-labeled dexamethasone for binding to a human glucocorticoid receptor (GR) complex prepared from an insect expression system. The assay buffer was: 10 mM TES, 50 mM KCl, 20 mM Na2MoO4.2H2O, 1.5 mM EDTA, 0.04% w/v CHAPS, 10% v/v glycerol, 1 mM dithiothreitol, pH 7.4. Test compounds were dissolved to 1 mM in neat DMSO and then further diluted to 10× assay concentration in assay buffer supplemented with 10% v/v DMSO. Test compounds were serially diluted at 10× assay concentrations in 10% DMSO-containing buffer in 96-well polypropylene plates. Binding reaction mixtures were prepared in 96-well black Dynex microtiter plates by sequential addition of the following assay components to each well: 15 μL of 10× test compound solution, 85 μL of GR-containing baculovirus lysate diluted 1:170 in assay buffer, and 50 μL of 15 nM TAMRA-labeled dexamethasone. Positive controls were reaction mixtures containing no test compound; negative controls (blanks) were reaction mixtures containing 0.7 μM to 2 μM dexamethasone. The binding reactions were incubated for 1 hour at room temperature and then read for fluorescence polarization in the LJL Analyst set to 550 nm excitation and 580 nm emission, with the Rhodamine 561 dichroic mirror installed. IC50 values were determined by iterative non-linear curve fitting of the FP signal data to a 4-parameter logistic equation.

glucocorticoid receptor = test: Glucocorticoid receptor function, one or more of the above assays; type: cell-based; conditions: in one or more of the above assays, assay not specified
Experimental: Dexamethasone, a synthetic ligand to the glucocorticoid receptor (GR), induces expression of aromatase in human foreskin fibroblast cells. The activity of aromatase is measured by the conversion of testosterone to estradiol in culture media.
Human foreskin fibroblast cells (ATCC Cat. No. CRL-2429, designation CCD112SK) are plated on 96 well plates at 50,000 cells per well 5 days before use, in Iscove's Modified Dulbecco's Media (GibcoBRL Life Technologies Cat No. 12440-053) supplemented with 10% charcoal filtered FBS (Clonetech Cat No. SH30068) and Gentamycin (GibcoBRL Life Technologies Cat. No. 15710-064). On the day of the experiment, the media in the wells is replaced with fresh media. Cells are treated with test compounds to final concentrations of 10^−5 M to 10^−8 M, and testosterone to a final concentration of 300 ng/mL. Each well has a total volume of 100 μL. Samples are made in duplicates. […] Estradiol in the supernatant is measured using ELISA kits for estradiol (made by ALPCO, obtained from American Laboratory Products Cat. No. 020-DR-2693) according to the manufacture's instruction. […] The extent of aromatase induction by test compounds is expressed as a relative percentage to dexamethasone. […]
Human foreskin fibroblast cells (ATCC Cat. No. CRL-2429) are plated on 96 well plates at 5,000 cells per well the day before use, in Iscove's Modified Dulbecco's Media (GibcoBRL Life Technologies Cat. No. 12440-053) supplemented with 10% charcoal filtered FBS (Clonetech Cat. No. SH30068) and Gentamycin (GibcoBRL Life Technologies Cat. No. 15710-064). […] IL-6 levels in the supernatants are determined by the ELISA kits for IL-6 (MedSystems Diagnostics GmbH, Vienna, Austria, Cat. No. BMS213TEN) according to manufacture's instructions. […]
H4-II-E-C3 cells were incubated overnight in 96 well plates (20,000 cells/100 μL/well) in MEM medium containing 10% heat inactivated FBS and 1% nonessential amino acids. […] After 18 hours, the cells were lysed in a buffer containing 0.1% Triton X-100 and the TAT activity was measured in a photometric assay using tyrosine and alpha-ketoglutarate as substrates. […]

## Cc1cc(C)c(S(=O)(=O)NC(CNc2cccc3cnccc23)C(F)(F)F)c(C)c1 (centres unmarked) [2,4,6-Trimethyl-N-[2,2,2-trifluoro-1-(isoquinolin-5-ylaminomethyl)ethyl]benzenesulfonamide]
[1]
  IC50: ≤ 100 nM

## CC[C@@H](CNc1ccc2c(cnn2-c2ccc(F)cc2)c1)NS(=O)(=O)c1c(C)cc(C)cc1C [N—((S)-1-{[1-(4-Fluorophenyl)-1H-indazol-5-ylamino]methyl}propyl)-2,4,6-trimethylbenzenesulfonamide]
[1]
  IC50: ≤ 100 nM

## Cc1cc(C)c(S(=O)(=O)NC(CSc2nc(C)cc(C(F)(F)F)c2C#N)C(F)(F)F)c(C)c1 (centres unmarked) [N-[1-(3-Cyano-6-methyl-4-trifluoromethylpyridin-2-ylsulfanylmethyl)-2,2,2-trifluoroethyl]-2,4,6-trimethylbenzenesulfonamide]
[1]
  IC50: ≤ 100 nM

## Cc1cc(C)c(S(=O)(=O)NC(CSc2ncccc2C(F)(F)F)C(F)(F)F)c(C)c1 (centres unmarked) [2,4,6-Trimethyl-N-[2,2,2-trifluoro-1-(3-trifluoromethylpyridin-2-ylsulfanylmethyl)ethyl]benzenesulfonamide]
[1]
  IC50: ≤ 100 nM

## CC[C@@H](CNc1ccc2c(cnn2-c2ccc(F)cc2)c1)NS(=O)(=O)c1c(N)cc(Cl)cc1Cl [2-Amino-4,6-dichloro-N—((S)-1-{[1-(4-fluorophenyl)-1H-indazol-5-ylamino]methyl}propyl)benzenesulfonamide]
[1]
  IC50: ≤ 100 nM
Glucocorticoid receptor
  activity as an agonist of the glucocorticoid receptor function: shown activity as an agonist

## Cc1cc(C)c(S(=O)(=O)NC(CSc2ccccn2)C(F)(F)F)c(C)c1 (centres unmarked) [2,4,6-Trimethyl-N-[2,2,2-trifluoro-1-(pyridin-2-ylsulfanylmethyl)ethyl]benzenesulfonamide]
[1]
  IC50: ≤ 100 nM

## CC[C@@H](CNc1cccc2[nH]ccc12)NS(=O)(=O)c1c(N)cc(Cl)cc1Cl [2-Amino-4,6-dichloro-N—{(S)-1-[(1H-indol-4-ylamino)methyl]propyl}benzenesulfonamide]
[1]
  IC50: ≤ 100 nM
Glucocorticoid receptor
  activity as an agonist of the glucocorticoid receptor function: shown activity as an agonist

## Cc1cc(C)c(S(=O)(=O)NC(COc2cccc3ncccc23)C(F)(F)F)c(C)c1 (centres unmarked) [2,4,6-Trimethyl-N-[2,2,2-trifluoro-1-(quinolin-5-yloxymethyl)ethyl]benzenesulfonamide]
[1]
  IC50: ≤ 100 nM

## Cc1cc(C)c(S(=O)(=O)NC(CNc2cccc3ncccc23)C(F)(F)F)c(C)c1 (centres unmarked) [2,4,6-Trimethyl-N-[2,2,2-trifluoro-1-(quinolin-5-ylaminomethyl)ethyl]benzenesulfonamide]
[1]
  IC50: ≤ 100 nM

## Cc1cc(C)c(S(=O)(=O)NC(CNc2cccc3ccc(C)nc23)C(F)(F)F)c(C)c1 (centres unmarked) [2,4,6-Trimethyl-N-{2,2,2-trifluoro-1-[(2-methylquinolin-8-ylamino)methyl]ethyl}benzenesulfonamide]
[1]
  IC50: ≤ 100 nM

## Cc1cc(C)c(S(=O)(=O)NC(COc2cccc3cnccc23)C(F)(F)F)c(C)c1 (centres unmarked) [2,4,6-Trimethyl-N-[2,2,2-trifluoro-1-(isoquinolin-5-yloxymethyl)ethyl]benzenesulfonamide]
[1]
  IC50: ≤ 100 nM

## CC[C@@H](CNc1cccc2[nH]ccc12)NS(=O)(=O)c1c(C)cc(C)cc1C [N—{(S)-1-[(1H-Indol-4-ylamino)methyl]propyl}-2,4,6-trimethylbenzenesulfonamide]
[1]
  IC50: ≤ 100 nM
Glucocorticoid receptor
  activity as an agonist of the glucocorticoid receptor function: shown activity as an agonist

## Cc1cc(C)c(S(=O)(=O)NC(CSc2ccc([N+](=O)[O-])cn2)C(F)(F)F)c(C)c1 (centres unmarked) [2,4,6-Trimethyl-N-[2,2,2-trifluoro-1-(5-nitropyridin-2-ylsulfanylmethyl)ethyl]benzenesulfonamide]
[1]
  IC50: ≤ 100 nM

## CC[C@@H](CNc1cccc2cc[nH]c12)NS(=O)(=O)c1c(C)cc(C)cc1C [N—{(S)-1-[(1H-Indol-7-ylamino)methyl]propyl}-2,4,6-trimethylbenzenesulfonamide]
[1]
  IC50: ≤ 100 nM
